Test system: 855422-203-R-J1-PDC complex spheroid growth
Test: Anticancer human tumor 855422-203-R-J1-PDC patient-derived bladder carcinoma cell line growth inhibition [AhR]
Conditions: for viability, T/C: stronger effect = lower value
How it was run: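 Spheroids combined tumor cells with HUVEC endothelial cells and human MSCs as stroma. AhR antagonists were paired with standard or investigational drugs, each dosed in half-log steps down from near clinical Cmax, or from 10 microM where Cmax was unknown.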

[1] = curve of first compound, second compound 0.1 µM
[2] = curve of first compound, second compound 0.316 µM
[3] = curve of first compound, second compound 1 µM
[4] = curve of first compound, second compound 3.16 µM
[5] = curve of first compound, second compound 10 µM
[6] = second compound 0.1 µM, first compound 0.0316 µM
[7] = second compound 0.1 µM, first compound 0.1 µM
[8] = second compound 0.1 µM, first compound 0.316 µM
[9] = second compound 0.1 µM, first compound 1 µM
[10] = second compound 0.1 µM, first compound 3.16 µM
[11] = second compound 0.1 µM, first compound 10 µM
[12] = second compound 0.316 µM, first compound 0.0316 µM
[13] = second compound 0.316 µM, first compound 0.1 µM
[14] = second compound 0.316 µM, first compound 0.316 µM
[15] = second compound 0.316 µM, first compound 1 µM
[16] = second compound 0.316 µM, first compound 3.16 µM
[17] = second compound 0.316 µM, first compound 10 µM
[18] = second compound 1 µM, first compound 0.0316 µM
[19] = second compound 1 µM, first compound 0.1 µM
[20] = second compound 1 µM, first compound 0.316 µM
[21] = second compound 1 µM, first compound 1 µM
[22] = second compound 1 µM, first compound 3.16 µM
[23] = second compound 1 µM, first compound 10 µM
[24] = second compound 3.16 µM, first compound 0.0316 µM
[25] = second compound 3.16 µM, first compound 0.1 µM
[26] = second compound 3.16 µM, first compound 0.316 µM
[27] = second compound 3.16 µM, first compound 1 µM
[28] = second compound 3.16 µM, first compound 3.16 µM
[29] = second compound 3.16 µM, first compound 10 µM
[30] = second compound 10 µM, first compound 0.0316 µM
[31] = second compound 10 µM, first compound 0.1 µM
[32] = second compound 10 µM, first compound 0.316 µM
[33] = second compound 10 µM, first compound 1 µM
[34] = second compound 10 µM, first compound 3.16 µM
[35] = second compound 10 µM, first compound 10 µM
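Also: spheroids exposed to agents for seven days before readout.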
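For viability, T/C in this document: percent of DMSO vehicle control luminescence viability.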

| SMILES | IC50 [1] [µM] | IC50 [2] [µM] | IC50 [3] [µM] | IC50 [4] [µM] | IC50 [5] [µM] | viability, T/C [6] [%] | viability, T/C [7] [%] | viability, T/C [8] [%] | viability, T/C [9] [%] | viability, T/C [12] [%] | viability, T/C [13] [%] | viability, T/C [14] [%] | viability, T/C [15] [%] | viability, T/C [18] [%] | viability, T/C [19] [%] | viability, T/C [20] [%] | viability, T/C [21] [%] | viability, T/C [24] [%] | viability, T/C [25] [%] | viability, T/C [26] [%] | further results |
| --- | --- | --- | --- | --- | --- | --- | --- | --- | --- | --- | --- | --- | --- | --- | --- | --- | --- | --- | --- | --- | --- |
| CC1(C)CCC(CN2CCN(c3ccc(C(=O)NS(=O)(=O)c4ccc(NCC5CCOCC5)c([N+](=O)[O-])c4)c(Oc4cnc5[nH]ccc5c4)c3)CC2)=C(c2ccc(Cl)cc2)C1 + Cc1ccccc1N=Nc1ccc(NC(=O)c2ccnn2C)c(C)c1 | 6.82 | 6.89 | 7.01 | 6.66 | 4.83 | 102 | 114 | 101 | 107 | 105 | 106 | 102 | 114 | 108 | 116 | 102 | 106 | 95.8 | 102 | 105 | viability, T/C [10]: 110%; viability, T/C [11]: 21.8%; viability, T/C [16]: 106%; viability, T/C [17]: 23.1%; viability, T/C [22]: 116%; viability, T/C [23]: 23.4%; viability, T/C [27]: 105%; viability, T/C [28]: 98.2%; viability, T/C [29]: 23.6%; viability, T/C [30]: 94.1%; viability, T/C [31]: 83.5%; viability, T/C [32]: 89%; viability, T/C [33]: 85.6%; viability, T/C [34]: 62.9%; viability, T/C [35]: 27.7% |
| COc1cc(Nc2ncc3c(n2)-c2ccc(Cl)cc2C(c2c(F)cccc2OC)=NC3)ccc1C(=O)O + Cc1ccccc1N=Nc1ccc(NC(=O)c2ccnn2C)c(C)c1 | > 10 | > 10 | > 10 | > 10 | > 10 | 109 | 108 | 88.9 | 85.1 | 105 | 109 | 93.4 | 92.8 | 114 | 113 | 98.7 | 84.3 | 105 | 106 | 87.3 | viability, T/C [10]: 77.7%; viability, T/C [11]: 73%; viability, T/C [16]: 85.9%; viability, T/C [17]: 68.7%; viability, T/C [22]: 78.1%; viability, T/C [23]: 76.8%; viability, T/C [27]: 79.4%; viability, T/C [28]: 79.5%; viability, T/C [29]: 68.3%; viability, T/C [30]: 87.8%; viability, T/C [31]: 88.8%; viability, T/C [32]: 81.7%; viability, T/C [33]: 89.7%; viability, T/C [34]: 79.2%; viability, T/C [35]: 71.2% |
| CC(CO)NC(=O)c1cc(-c2ccc(Cl)cc2)nn(-c2cnn(C)c2)c1=O (stereo not given) |  |  |  |  |  |  |  |  |  |  |  |  |  |  |  |  |  |  |  |  | viability, T/C (compound 0.1 µM): 92.2% [middle of 20 runs]; viability, T/C (compound 1 µM): 94.9% [middle of 21 runs]; viability, T/C (compound 3.16 µM): 96.8% [middle of 19 runs]; viability, T/C (compound 10 µM): 91.4% [middle of 19 runs]; IC50 (compound alone, run of 05/31/2022): > 10 µM |

Now from value to molecule, other results behind:

| IC50 [1] [µM] | IC50 [2] [µM] | IC50 [3] [µM] | IC50 [4] [µM] | IC50 [5] [µM] | SMILES | viability, T/C [6] [%] | viability, T/C [7] [%] | viability, T/C [8] [%] | viability, T/C [9] [%] | viability, T/C [12] [%] | viability, T/C [13] [%] | viability, T/C [14] [%] | viability, T/C [15] [%] | viability, T/C [18] [%] | viability, T/C [19] [%] | viability, T/C [20] [%] | viability, T/C [21] [%] | viability, T/C [24] [%] | viability, T/C [25] [%] | viability, T/C [26] [%] | further results |
| --- | --- | --- | --- | --- | --- | --- | --- | --- | --- | --- | --- | --- | --- | --- | --- | --- | --- | --- | --- | --- | --- |
| < 0.0316 | < 0.0316 | < 0.0316 | < 0.0316 | < 0.0316 | COc1cccc2c1C(=O)c1c(O)c3c(c(O)c1C2=O)CC(O)(C(=O)CO)CC3OC1CC(N)C(O)C(C)O1 (stereo not given) + CC(CO)NC(=O)c1cc(-c2ccc(Cl)cc2)nn(-c2cnn(C)c2)c1=O | 34.3 | 21.9 | 4.3 | 1.57 | 31.6 | 21.3 | 3.51 | 1.36 | 37.7 | 21.3 | 3.4 | 1.68 | 32 | 17.5 | 2.92 | viability, T/C [10]: 1.7%; viability, T/C [11]: 2.88%; viability, T/C [16]: 1.02%; viability, T/C [17]: 2.82%; viability, T/C [22]: 0.81%; viability, T/C [23]: 3.37%; viability, T/C [27]: 1.21%; viability, T/C [28]: 0.84%; viability, T/C [29]: 4.27%; viability, T/C [30]: 32.9%; viability, T/C [31]: 17.8%; viability, T/C [32]: 2.64%; viability, T/C [33]: 0.53%; viability, T/C [34]: 0.94%; viability, T/C [35]: 5.77% |
| > 1 | > 1 | > 1 | > 1 | > 1 | Nc1ncn(C2CC(O)C(CO)O2)c(=O)n1 (stereo not given) + CC(CO)NC(=O)c1cc(-c2ccc(Cl)cc2)nn(-c2cnn(C)c2)c1=O | 85 | 85.3 | 73 | 76.3 | 93.3 | 83.6 | 80.7 | 78.2 | 95.7 | 87.4 | 82.5 | 80.2 | 90.2 | 79.8 | 79.5 | viability, T/C (second compound 0.1 µM, first compound 0.00316 µM): 92.6%; viability, T/C (second compound 0.1 µM, first compound 0.01 µM): 92.2%; viability, T/C (second compound 0.316 µM, first compound 0.00316 µM): 94.6%; viability, T/C (second compound 0.316 µM, first compound 0.01 µM): 90.3%; viability, T/C (second compound 1 µM, first compound 0.00316 µM): 103%; viability, T/C (second compound 1 µM, first compound 0.01 µM): 96.6%; viability, T/C (second compound 3.16 µM, first compound 0.00316 µM): 95.3%; viability, T/C (second compound 3.16 µM, first compound 0.01 µM): 93.9%; viability, T/C [27]: 80.9%; viability, T/C (second compound 10 µM, first compound 0.00316 µM): 96.5%; viability, T/C (second compound 10 µM, first compound 0.01 µM): 88.7%; viability, T/C [30]: 88.3%; viability, T/C [31]: 91.5%; viability, T/C [32]: 84.8%; viability, T/C [33]: 76.3% |

— PubChem BioAssay AID1919005 (Molecular Pharmacology Branch, DTP, NCI, 2023)
